Results taken from US20110034457A1, “Pyridothiophene Compounds” (VERNALIS (CAMBRIDGE) LIMITED., priority 2003, published 2011).
Like-named read-outs stand apart in the source and are kept apart here.

Target: T1, human full-length HSP90 (Homo sapiens, UniProt P08238)
T1 construct: E. coli expressed human full-length HSP90 protein, purified >95%; made in house; host or cells: E. coli
Experiment: Fluorescence polarization assay (competitive displacement of probe RBT0045864-FAM from HSP90)
Format: binding
Excerpt: Fluorescence polarization {also known as fluorescence anisotropy} measures the rotation of a fluorescing species in solution, where the larger molecule the more polarized the fluorescence emission. When the fluorophore is excited with polarized light, the emitted light is also polarized. The molecular size is proportional to the polarization of the fluorescence emission.
The fluoroscein-labelled probe—RBT0045864-FAM—
binds to HSP90 {full-length human, full-length yeast or N-terminal domain HSP90} and the anisotropy {rotation of the probe:protein complex} is measured.
Test compound is added to the assay plate, left to equilibrate and the anisotropy measured again. Any change in anisotropy is due to competitive binding of compound to HSP90, thereby releasing probe.
Stored at room temperature. • 3) BSA (bovine serum albumen) 10 mg/ml (New England Biolabs # B9001S) • 4) 20 mM probe in 100% DMSO stock concentration. Stored in the dark at RT. Working concentration is 200 nM diluted in AR water and stored at 4° C.
• 1) Add 100 μl 1× buffer to wells 11A and 12A (=FP BLNK) • 2) Prepare assay mix—all reagents are kept on ice with a lid on the bucket as the probe is light-sensitive.
• 3) Aliquot 100 μl assay mix to all other wells • 4) Seal plate and leave in dark at room temp for 20 minutes to equilibrate
This gives 2.5 mM {50×} stock cpd—assuming cpds 20 mM. • 4) Repeat for wells A2 to A10. Control in columns 11 and 12. • 5) Transfer 5 μl from row A to row B—not column 12. Mix well. • 6) Transfer 5 μl from row B to row C. […] Add 2 μl of 100 mM standard cpd to wells B12-H12 {is positive control} • 13) The Z′ factor is calculated from zero controls and positive wells.

[1] = fluorescence polarisation, E. coli expressed human full-length HSP90 200 nM, probe 80 nM, read-out: Hsp90 FP IC50

T1 sequence (P08238 whole entry): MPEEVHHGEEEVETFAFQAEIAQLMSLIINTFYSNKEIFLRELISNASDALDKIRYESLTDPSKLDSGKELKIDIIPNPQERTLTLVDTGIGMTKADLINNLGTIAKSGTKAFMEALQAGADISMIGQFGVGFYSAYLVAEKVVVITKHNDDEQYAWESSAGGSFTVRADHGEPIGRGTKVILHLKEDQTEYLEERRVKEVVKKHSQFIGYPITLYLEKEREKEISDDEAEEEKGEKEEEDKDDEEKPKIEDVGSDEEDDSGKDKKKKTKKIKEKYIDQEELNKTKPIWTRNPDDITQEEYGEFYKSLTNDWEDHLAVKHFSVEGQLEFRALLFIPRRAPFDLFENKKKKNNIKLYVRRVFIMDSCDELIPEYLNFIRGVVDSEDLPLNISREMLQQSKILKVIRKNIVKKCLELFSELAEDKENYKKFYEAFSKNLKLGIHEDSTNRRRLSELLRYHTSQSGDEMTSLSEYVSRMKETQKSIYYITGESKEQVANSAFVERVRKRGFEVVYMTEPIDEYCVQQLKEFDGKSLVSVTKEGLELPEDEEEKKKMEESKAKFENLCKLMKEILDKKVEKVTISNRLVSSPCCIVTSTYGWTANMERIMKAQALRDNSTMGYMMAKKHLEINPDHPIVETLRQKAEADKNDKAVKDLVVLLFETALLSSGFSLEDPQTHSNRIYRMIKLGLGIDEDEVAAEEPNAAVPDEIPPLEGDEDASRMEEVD

Compound | IC50 [1] [µM] | IC50 [µM]
CCNC(=O)c1sc2nc(N)c(C#N)c(-c3ccccc3)c2c1N [Example 1, 3,6-Diamino-5-cyano-4-phenyl-thieno[2,3-b]pyridine-2-carboxylic acid ethylamide] | < 10 | –
Cc1ccccc1NC(=O)c1sc2nc(N)c(C#N)c(-c3ccc(C(C)C)cc3)c2c1N [Example 2] | > 10 | –
COc1cccc(NC(=O)c2sc3nc(N)c(C#N)c(-c4ccc(C(C)C)cc4)c3c2N)c1 [Example 3] | > 10 | –
N#Cc1c(N)nc2sc(C(N)=O)c(N)c2c1-c1ccc(Br)cc1 [Example 4] | > 10 | –
CC(C)c1ccc(-c2c(C#N)c(N)nc3sc(C(=O)Nc4nccs4)c(N)c23)cc1 [Example 5] | > 10 | –
CC(C)c1ccc(-c2c(C#N)c(N)nc3sc(C(N)=O)c(N)c23)cc1 [Example 6] | < 10 | –
N#Cc1c(N)nc2sc(C(N)=O)c(N)c2c1-c1ccc(Cl)cc1 [Example 7] | < 10 | –
CCOc1ccc(-c2c(C#N)c(N)nc3sc(C(N)=O)c(N)c23)cc1 [Example 8] | – | < 10
N#Cc1c(N)nc2sc(C(=O)Nc3ccccc3)c(N)c2c1-c1ccc(Br)cc1 [Example 9] | > 10 | –
COc1ccc(-c2c(C#N)c(N)nc3sc(C(N)=O)c(N)c23)cc1OC [Example 10] | > 10 | –
CC(C)NC(=O)c1sc2nc(N)c(C#N)c(-c3ccccc3)c2c1N [Example 11] | > 10 | –
N#Cc1c(N)nc2sc(C(=O)NCc3ccccc3)c(N)c2c1-c1ccccc1 [Example 12] | > 10 | –
CCN(CC)C(=O)c1sc2nc(N)c(C#N)c(-c3ccccc3)c2c1N [Example 13] | > 10 | –
CNC(=O)c1sc2nc(N)c(C#N)c(-c3ccccc3)c2c1N [Example 14] | < 10 | –
COC(=O)CNC(=O)c1sc2nc(N)c(C#N)c(-c3ccccc3)c2c1N [Example 15] | < 10 | –
CN1CCN(C(=O)c2sc3nc(N)c(C#N)c(-c4ccccc4)c3c2N)CC1 [Example 16] | > 10 | –

The next lines start with the values.

IC50 [1] [µM] | IC50 [µM] | Compound
> 10 | – | CN(C)CCCNC(=O)c1sc2nc(N)c(C#N)c(-c3ccccc3)c2c1N [Example 17]
> 10 | – | CN1CCN(CCCNC(=O)c2sc3nc(N)c(C#N)c(-c4ccccc4)c3c2N)CC1 [Example 18]
> 10 | – | N#Cc1c(N)nc2sc(C(=O)NCCCN3CCOCC3)c(N)c2c1-c1ccccc1 [Example 19]
> 10 | – | N#Cc1c(N)nc2sc(C(=O)N3CCOCC3)c(N)c2c1-c1ccccc1 [Example 20]
> 10 | – | N#Cc1c(N)nc2sc(C(=O)NCCN3CCOCC3)c(N)c2c1-c1ccccc1 [Example 21]
< 10 | – | N#Cc1c(N)nc2sc(C(=O)NCC(N)=O)c(N)c2c1-c1ccccc1 [Example 22]
> 10 | – | CN(C)CCNC(=O)c1sc2nc(N)c(C#N)c(-c3ccccc3)c2c1N [Example 23]
> 10 | – | N#Cc1c(N)nc2sc(C(=O)NCCO)c(N)c2c1-c1ccccc1 [Example 24]
> 10 | – | N#Cc1c(N)nc2sc(C(N)=O)c(N)c2c1-c1ccccc1 [Example 25]
> 10 | – | N#Cc1c(N)nc2sc(C(=O)NCCN)c(N)c2c1-c1ccccc1 [Example 26]
> 10 | – | COC(=O)c1sc2nc(N)c(C#N)c(-c3ccc(OC(C)C)cc3)c2c1N [Example 27]
